Data on one sequence can be found in US12295997B2, “Prostate neoantigens and their uses” (Janssen Biotech, Inc., priority 2020, dated 2025).

In the assay the test system is CD8+ and CD4+ T cells (autologous CD3+ Pan-T cells isolated from human normal PBMCs). Briefly: Endogenous autologous normal donor restimulation assay (Ad5-transduced CD1c+ dendritic cells, TNFα/IFNγ flow cytometry). It counts as cell-based. The following applies: Table 27, endogenous expression, peptide pool restimulation, highest across sixteen normal donors. The protocol:
CD1c+ Dendritic Cells (DC) isolated from human normal PBMCs were thawed using media (IMDM (Gibco) supplemented with glutamine, HEPES, 5% human serum (Sigma), and 1×Pen-Strep). DC cells were resuspended in media supplemented with IL-4 (Peprotech, 80 ng/mL) and GM-CSF (Gibco, 80 ng/mL), plated in 6 well microplates, and rested overnight at 37° C. (5% CO2). The following day, DC cells were counted and plated in a 96 well round bottom microplate at a concentration of 30,000 viable cells per well. Ad5 vectors (Vector Biolabs) were dilute in media to an MOI (Multiplicity Of Infection) of 5000 based on Plaque Forming Units. Ad5 vectors for the CEF pool and a “null” were used as controls. DCs were transduced with Ad5 vectors overnight at 37° C. (5% CO2). The following day, the Ad5 vectors were washed off the plate by three sequential centrifugation/aspiration steps using sterile Phosphate Buffered Saline. After the final wash, transduced DCs were resuspended in 100 μL media. Autologous CD3+ Pan-T cells isolated from human normal PBMCs were thawed using media. Pan-T cells were added to the irradiated DCs at 300,000 viable cells per well (100 μL/well). Human IL-15 (Peprotech) was added to all wells at final concentration of 10 ng/mL.
Plates were incubated at 37° C. (5% CO2) for a total of 12 days. Media was refreshed every 2-3 days with IL-15 (10 ng/mL final concentration) and IL-2 (R&D systems, 10 IU/mL final concentration). On day 11 lyophilized peptides (15-mer overlapping peptides) were solubilized in 100% DMSO and pooled by neoantigen to between 5 mg/mL and 20 mg/mL. Neoantigen peptides pools were added to cells for a final concentration of 2.5 μg/mL to 10 μg/mL. CEF Peptide Pool “Plus” (Cellular Technologies, Ltd.) was utilized as a positive control and DMSO at the same final concentration as the experimental peptides was utilized as a negative control. Protein Inhibitor Cocktail (eBioscience) was added to every well and plate was incubated overnight at 37° C. (5% CO2).
On day 12, cells were stained for intracellular flow cytometry analysis. The cells were washed with PBS and stained with Live/Dead Fixable Aqua Dead Cell stain (Thermo-Fisher). Following the live/dead stain, cells were blocked using Biotin-Free Fc Receptor Blocker (Accurate Chemical & Scientific Corp). Extracellular cellular flow panel ([…] per well in 50 μL) consisted of CD3 PerCP-Cy5.5 (Biolegend), CD4 BV421 (Biolegend), and CD8 APC-Cy7 (Biolegend). After extracellular staining, cells were fixed using Foxp3/fTranscription Factor Staining Buffer Set (eBioscience) and stained for intracellular proteins (1:50 dilution) using TNFα FITC (R&D Systems) and IFNγ BV785 (Biolegend). Cells were washed and resuspended in stain buffer and analyzed using a BD Celesta flow cytometer.
Flow cytometry cell staining analysis was completed using FlowJo v10. Cells were gated on live, singlet, CD3+ cells. The CD8+ and CD4+ T cells were analyzed for TNFα/IFNγ expression and the frequency of double positive TNFα/IFNγ CD8+ and the frequency of double positive TNFα/IFNγ CD4+ T cells were recorded. Responses were assessed to be positive when the frequency of double positive TNFα/IFNγ CD8+ or TNFα/IFNγ CD4+ T cells due to stimulation with an experimental peptide pool was increased greater than or equal to 3-fold over the DMSO only negative control for that donor and at least 0.01%.
For three of the neoantigens, an Ad5 vector was designed to transduce normal Dendritic cells with the neoantigens. This assay assessed the ability of the endogenously expressed and presented neoantigens to activate autologous T cells following overlapping 15-mer peptide pools restimulation using the endogenous autologous normal donor restimulation assay described in Example 1 utilizing TNFα and IFNγ production by CD8^+ and CD4^+ T cells as a readout. […] Sixteen donors were used to assess endogenous immunogenicity.

In the case of “YEAGMTLGGKILFFLFLLLPLSPFSLIF (listed as Homo sapiens) [Neoantigen P87]”, the “Maximum Fold Change Over Background CD4+ cells” value was 2.41, the “Maximum Fold Change Over Background CD8+ cells” value is 2.47, the “Maximum Frequency of TNFα/IFNγ Double Positive CD4+ T cells” value is reported as 0.079 and the “Maximum Frequency of TNFα/IFNγ Double Positive CD8+ T cells” value is on record as 0.39.
